Target: HPK1
Assay: HPK1 Lantha Binding Assay ("Lanth")
Settings: Table B1-1, read-out: HPK1 Ki (μM) (Lanth)
Protocol: HPK1 Lantha Binding Assay (“Lanth”)
The compounds to be tested were diluted by preparing 12.5 uL/well of 5 mM compound (100×) in columns 2 and 13 and 10 ul/well of DMSO in columns 3-12, 14-23, and wells A1-H1 and I24-P24 of the compound plate using a Bravo liquid handling platform. For the reference compound, the top concentration was 1 mM. To the plate was added 10 ul 2 mM staurosporine in wells J1-P1 and A24-H24. A 11 point 5-fold compound serial dilution was performed using the Bravo liquid handling platform. From the plate were transferred 2.5 ul of the solutions from column 2 and column 13 to the 10 ul of DMSO in columns 3 and 14 & so on. The compound plate was centrifuged at 2500 rpm for 1 min. From the compound plate was transferred 80 nl of the compounds into an assay plate using the Echo liquid handler system. One compound plate makes two assay plates. Each assay plate is sealed and stored in an N2 cabinet.
The following assay concentrations and times were used: 2 nM HPK1, 2 nM Eu-Anti-GST Ab, and 15 nM Tracer222, with 60 min incubation time.
III. HPK Lantha Binding Assay:
For the binding assay, 4 ul 2×HPK1 and Eu-anti-GST antibody were added to each well of the assay plate using a Multidrop reagent dispenser. The solutions were incubated in a 23 C incubator for 1 h. To each well of the assay plate was added 4 ul 2× Tracer-222 using a Multidrop reagent dispenser. The solutions were again incubated in a 23 C incubator for 1 h. The results of the assay were read using an Envision plate reader with the following parameters: TR_FRET, 340ex/615 and 665em; 100 usec Delay; and 200 usec integration.
Compound Ki was analyzed using Morrison ki fit model in XL-fit • a. fit=(1−((((E+x)+(Ki*(1+(S/Kd))))−(((((E+x)+(Ki*(1+(S/Kd))))[…])−((4*E)*x))^0.5))/(2*E))) • res=(y-fit) • b. Parameters: • E=enzyme concentration • S=Tracer222 concentration, Kd=Tracer222 Kd • All measurements reported using the same units (uM)
Exemplary compounds of Formula I or Ia were tested in the binding assays. The Ki data in Table B1-1 are based on the “Lanth” assay.

| SMILES | Ki |
| --- | --- |
| Cc1ccncc1-c1cc2cc(NC(=O)[C@@H]3CC[C@@H]3C)ncc2c(N)n1 [Compound 323, (1R,2S)—N-(8-amino-6-(4-methylpyridin-3-yl)-2,7-naphthyridin-3-yl)-2-methylcyclobutanecarboxamide] | 76.3 nM |
| Cc1ccncc1-c1cc2cc(NC(=O)O[C@@H]3CCNC3=O)ncc2c(N)n1 [Compound 133] | 15 nM |
| CCc1ccncc1-c1cc2cc(NC(=O)c3cc[nH]n3)ncc2c(N)n1 [Compound 71, 2H-Pyrazole-3-carboxylic acid [8-amino-6-(4-ethylpyridin-3-yl)-[2,7]naphthyridin-3-yl]amide] | 10 nM |
| Cc1ccncc1-c1nc(N)c2cnc(NC(=O)Nc3cnn(C)c3)cc2c1F [Compound 162, 1-[8-amino-5-fluoro-6-(4-methyl-3-pyridyl)-2,7-naphthyridin-3-yl]-3-(1-methylpyrazol-4-yl)urea] | 3.2 nM |
| CCc1ccncc1-c1cc2cc(NC(=O)c3cc(C)[nH]n3)ncc2c(N)n1 [Compound 70, 5-Methyl-1H-pyrazole-3-carboxylic acid [8-amino-6-(4-ethylpyridin-3-yl)-[2,7]naphthyridin-3-yl]amide] | 27.6 nM |
| Cc1ccncc1-c1cc2cc(NC(=O)N[C@H]3CCC[C@@H]3O)ncc2c(N)n1 [Compound 134, 1-[8-amino-6-(4-methyl-3-pyridyl)-2,7-naphthyridin-3-yl]-3-[(1S,2S)-2-hydroxycyclopentyl]urea] | 5.6 nM |
| N#CC[C@@H]1C[C@H]1C(=O)Nc1cc2cc(-c3c(Cl)cccc3Cl)nc(N)c2cn1 [Compound 311, (1R,2S)—N-(8-amino-6-(2,6-dichlorophenyl)-2,7-naphthyridin-3-yl)-2-(cyanomethyl)cyclopropanecarboxamide] | 1.15 nM |
| Cc1ccncc1-c1cc2cc(Nc3ccn(C)c(=O)c3)ncc2c(N)n1 [Compound 170, 4-[[8-amino-6-(4-methyl-3-pyridyl)-2,7-naphthyridin-3-yl]amino]-1-methyl-pyridin-2-one] | 3 nM |
| Cc1ccncc1-c1nc(N)c2cnc(NC(=O)Nc3cnn(C)c3)cc2c1Cl [Compound 163, 1-[8-amino-5-chloro-6-(4-methyl-3-pyridyl)-2,7-naphthyridin-3-yl]-3-(1-methylpyrazol-4-yl)urea] | 1.2 nM |
| CCc1ccncc1-c1cc2cc(NC(=O)CCC#N)ncc2c(N)n1 [Compound 28, N-[8-amino-6-(4-ethyl-3-pyridyl)-2,7-naphthyridin-3-yl]-3-cyano-propanamide] | 14.9 nM |
| Cc1ccc(C#N)cc1-c1cc2cc(NC(=O)[C@@H]3C[C@H]3c3cnn(C)c3)ncc2c(N)n1 [Compound 300, (1R,2R)—N-[8-amino-6-(5-cyano-2-methylphenyl)-2,7-naphthyridin-3-yl]-2-(1-methyl-1H-pyrazol-4-yl)cyclopropane-1-carboxamide] | 1.36 nM |
| CCc1ccncc1-c1cc2cc(Nc3cnn(CCO)c3)ncc2c(N)n1 [Compound 85, 2-{4-[8-Amino-6-(4-ethylpyridin-3-yl)-[2,7]naphthyridin-3-ylamino]pyrazol-1-yl}ethanol] | 1.98 nM |
| Cn1cc([C@H]2C[C@@H]2C(=O)Nc2cc3cc(-c4cnccc4CCO)nc(N)c3cn2)cn1 [Compound 215, (1S,2S)—N-(8-amino-6-(4-(2-hydroxyethyl)pyridin-3-yl)-2,7-naphthyridin-3-yl)-2-(1-methyl-1H-pyrazol-4-yl)cyclopropanecarboxamide] | 1.19 nM |
| Cc1cc(-c2cnn(C)c2)ncc1-c1cc2cc(NC(=O)[C@H]3C[C@@H]3CC#N)ncc2c(N)n1 [Compound 238, (1S,2R)—N-(8-amino-6-(4-methyl-6-(i-methyl-H-pyrazol-4-yl)pyridin-3-yl)-2,7-naphthyridin-3-yl)-2-(cyanomethyl)cyclopropanecarboxamide] | 1.94 nM |
| Cc1cc(CO)ncc1-c1cc2cc(NC(=O)C3CC3)ncc2c(N)n1 [Compound 25, N-(8-amino-6-(6-(hydroxymethyl)-4-methylpyridin-3-yl)-2,7-naphthyridin-3-yl)cyclopropanecarboxamide] | 1.54 nM |

Now those with a lower Ki, led by results:

| Ki | SMILES |
| --- | --- |
| 0.768 nM | CCc1c(-c2cnccc2C)nc(N)c2cnc(NC(=O)[C@@H]3C[C@H]3CC#N)cc12 (stereo in doubt) [Compound 271, (1R,2S)—N-[8-amino-5-ethyl-6-(4-methylpyridin-3-yl)-2,7-naphthyridin-3-yl]-2-(cyanomethyl)cyclopropane-1-carboxamide] |
| 0.0892 nM | Nc1nc(-c2cnccc2CCO)cc2cc(NC(=O)[C@@H]3C[C@H]3c3cccnc3)ncc12 [Compound 253, (1R,2R)—N-[8-amino-6-[4-(2-hydroxyethyl)pyridin-3-yl]-2,7-naphthyridin-3-yl]-2-(pyridin-3-yl)cyclopropane-1-carboxamide] |
| 0.3 nM | CCc1ccncc1-c1cc2cc(Nc3cccc(CO)n3)ncc2c(N)n1 [Compound 83, {6-[8-amino-6-(4-ethylpyridin-3-yl)-[2,7]naphthyridin-3-ylamino]pyridin-2-yl}methanol] |
| 0.932 nM | Cc1ccccc1-c1cc2cc(NC(=O)[C@@H]3C[C@H]3c3cnn(C)c3)ncc2c(N)n1 [Compound 298, (1R,2R)—N-[8-amino-6-(2-methylphenyl)-2,7-naphthyridin-3-yl]-2-(1-methyl-1H-pyrazol-4-yl)cyclopropane-1-carboxamide] |
| 0.8 nM | CCc1ccncc1-c1cc2cc(Nc3cn[nH]c3)ncc2c(N)n1 [Compound 75, 3-(4-Ethylpyridin-3-yl)-N6-(1H-pyrazol-4-yl)-[2,7]naphthyridine-1,6-diamine] |
| 0.078 nM | Cc1ccc(O)cc1-c1cc2cc(NC(=O)[C@@H]3C[C@H]3c3cnn(C)c3)ncc2c(N)n1 [Compound 287, (1R,2R)—N-[8-amino-6-(5-hydroxy-2-methylphenyl)-2,7-naphthyridin-3-yl]-2-(1-methyl-1H-pyrazol-4-yl)cyclopropane-1-carboxamide] |
| 0.02 nM | CC(=O)N1CC(n2cc(Nc3cc4cc(-c5cnccc5C)nc(N)c4cn3)cn2)C1 [Compound 161, 1-[3-[4-[[8-amino-6-(4-methyl-3-pyridyl)-2,7-naphthyridin-3-yl]amino]pyrazol-1-yl]azetidin-1-yl]ethanone] |
| 0.3 nM | CCc1ccncc1-c1cc2cc(Nc3cc(C(=O)N(C)CC)ccn3)ncc2c(N)n1 [Compound 81, 2-[8-Amino-6-(4-ethylpyridin-3-yl)-[2,7]naphthyridin-3-ylamino]-N-ethyl-N-methylisonicotinamide] |
| 0.074 nM | Cc1ccncc1-c1cc2cc(NC(=O)[C@@H]3[C@@H](C)[C@H]3c3cnn(C)c3)ncc2c(N)n1 [Compound 326, (1R,2S,3R)—N-[8-amino-6-(4-methylpyridin-3-yl)-2,7-naphthyridin-3-yl]-2-methyl-3-(1-methyl-1H-pyrazol-4-yl)cyclopropane-1-carboxamide] |
| 0.249 nM | Cc1ccncc1-c1cc2cc(Nc3ccc(N4CCNCC4=O)cc3)ncc2c(N)n1 [Compound 265, 1-(4-[[8-amino-6-(4-methylpyridin-3-yl)-2,7-naphthyridin-3-yl]amino]phenyl)piperazin-2-one] |
| 0.4 nM | Cc1ccncc1-c1cc2cc(NC(=O)[C@@H]3C[C@H]3C#N)ncc2c(N)n1 [Compound 203, (1R,2R)—N-(8-amino-6-(4-methylpyridin-3-yl)-2,7-naphthyridin-3-yl)-2-cyanocyclopropane-1-carboxamide] |

Source: patent US11034692B1 (Genentech, Inc., priority 2017, dated 2021)
